Source: US6894053B2, “Serotonergic agents with long-acting in vivo effects” (Wyeth, priority 2001, dated 2005)
Where a name gives a salt, the structure may show the parent alone.

Columns and labels:
[1] = target: T1, 5-HT1A (Rattus norvegicus, UniProt P19327); assay: Ex vivo binding of [3H]-WAY-100635: 5-HT1A receptor occupancy in rat brain; settings: for [3H]-WAY-100635 remaining in membrane preparation: 3 mg/kg ip
T1 construct: from tissue; host or cells: rat brain (cortex and hippocampus membranes in the ex vivo assay; whole animal in the behavioural model)
T1 sequence (P19327 1-422): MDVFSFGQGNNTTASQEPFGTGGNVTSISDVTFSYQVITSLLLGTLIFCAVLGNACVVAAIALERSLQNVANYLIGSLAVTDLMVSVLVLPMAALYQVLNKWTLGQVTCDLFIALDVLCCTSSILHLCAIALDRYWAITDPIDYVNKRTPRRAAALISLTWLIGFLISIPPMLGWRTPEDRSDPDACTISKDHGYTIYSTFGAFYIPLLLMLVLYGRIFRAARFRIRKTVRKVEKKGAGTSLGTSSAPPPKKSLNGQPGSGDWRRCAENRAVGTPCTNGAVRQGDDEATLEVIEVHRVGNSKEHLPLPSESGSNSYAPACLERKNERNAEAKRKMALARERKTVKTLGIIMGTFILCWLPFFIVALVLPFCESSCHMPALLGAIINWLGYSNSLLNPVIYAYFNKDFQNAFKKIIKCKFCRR
Description: The serotonergic 5-HT1A receptor occupancy in vivo of the compounds of this invention was determined using ex vivo binding techniques. Rats were injected with a 3 mg/kg ip dose of Example 1 or vehicle and then sacrificed after 1, 24, 72, 168, and 336 hours. […] Tissue was prepared by homogenization and washed once with buffer. Serotonergic 5-HT1A receptors were measured in the membrane preparation using the standard 5-HT1A receptor antagonist [^3H]-WAY-100635 (85 Ci/mmol). Specific binding was determined in the presence of […] methiothepin. The ability of the test compounds to displace [^3H]-WAY-100635 from the 5-HT1A receptor was then determined and expressed as the fmol/mg protein of [^3H]-WAY-100635 remaining in the membrane preparation after treatment with the test compound.

[2] = target: T1, 5-HT1A; assay: Fixed Responding Model (fixed-ratio 30 food schedule), antagonism of 8-OH-DPAT; type: in vivo
Description: The ability of the compounds of this invention to function in vivo as 5-HT1A antagonists was assessed in rats using a Fixed Responding Model (Blackman, D., in, “Operant Conditioning: An Experimental Analysis of Behavior”, J. Butcher, Ed., Methuen and Co., Ltd., London). In this model rats are trained to respond (lever pressing) under a fixed-ratio 30 schedule of food presentation in order to receive a food pellet reinforcer. […] 5-HT1A antagonist activity is assessed by determining the test compound's ability to antagonize this decrease in response rate induced by administration of the agonist.

## COc1ccccc1N1CCN(C[C@@H](CC2CCCCC2)NC(=O)C2(C)CCCCC2)CC1 (as salt: hydrochloride) (hydrate or solvate) [Example 1, 1-Methyl-cyclohexanecarboxylic acid {(1R)-1-cyclohexylmethyl-2-[4-(2-methoxyphenyl)-piperazin-1-yl]-ethyl}-amide hydrochloride hydrate]
other
  melting point: 119 to 121 °C

## COc1ccccc1N1CCN(C[C@@H](CC2CCCCC2)NC(=O)C2(C)CCCCC2)CC1 [Example 1, 1-Methyl-cyclohexanecarboxylic acid {(1R)-1-cyclohexylmethyl-2-[4-(2-methoxyphenyl)-piperazin-1-yl]-ethyl}-amide hydrochloride hydrate]
[1]; 1 hour, cortex
  [3H]-WAY-100635 remaining in membrane preparation: 4.0 ± 0.1 fmol/mg protein
[1]; 1 hour, striat.
  [3H]-WAY-100635 remaining in membrane preparation: 6.0 ± 0.3 fmol/mg protein
[1]; 24 hour, cortex
  [3H]-WAY-100635 remaining in membrane preparation: 8.0 ± 0.6 fmol/mg protein
[1]; 24 hour, striat.
  [3H]-WAY-100635 remaining in membrane preparation: 12.0 ± 2.7 fmol/mg protein
[1]; 72 hours, cortex
  [3H]-WAY-100635 remaining in membrane preparation: 9.0 ± 0.6 fmol/mg protein
[1]; 72 hours, striat.
  [3H]-WAY-100635 remaining in membrane preparation: 14.0 ± 2.3 fmol/mg protein
[1]; 7 days, cortex
  [3H]-WAY-100635 remaining in membrane preparation: 7.0 ± 0.3 fmol/mg protein
[1]; 7 days, striat.
  [3H]-WAY-100635 remaining in membrane preparation: 15.0 ± 1.7 fmol/mg protein
[1]; 14 days, cortex
  [3H]-WAY-100635 remaining in membrane preparation: 11.0 ± 0.3 fmol/mg protein
[1]; 14 days, striat.
  [3H]-WAY-100635 remaining in membrane preparation: 26.0 ± 0.6 fmol/mg protein
[1]; single administration, ex vivo binding
  Duration of significant inhibition of WAY-100635 binding after a single administration: up to 14 days
[2]; 3 mg/kg sc vs 8-OH-DPAT 1 mg/kg sc
  Reversal of the effect of 8-OH-DPAT on response rate: completely reverses
[2]; 8-OH-DPAT (1 mg/kg sc) + test compound 3 mg/kg sc
  Response Rate: 2.4 ± 0.3 responses/second
[2]; single dose 3 mg/kg sc, daily 8-OH-DPAT 1 mg/kg sc
  Duration of significant inhibition of the 8-OH-DPAT-induced decrease in responding: up to 17 days
[2]; single dose 3 mg/kg sc, daily 8-OH-DPAT 1 mg/kg sc, Day 1
  Response Rate: 2.4 ± 0.3 responses/second
[2]; single dose 3 mg/kg sc, daily 8-OH-DPAT 1 mg/kg sc, Day 4
  Response Rate: 2.1 ± 0.3 responses/second
[2]; single dose 3 mg/kg sc, daily 8-OH-DPAT 1 mg/kg sc, Day 7
  Response Rate: 2.0 ± 0.3 responses/second
[2]; single dose 3 mg/kg sc, daily 8-OH-DPAT 1 mg/kg sc, Day 11
  Response Rate: 1.8 ± 0.2 responses/second
[2]; single dose 3 mg/kg sc, daily 8-OH-DPAT 1 mg/kg sc, Day 14
  Response Rate: 1.7 ± 0.3 responses/second
[2]; single dose 3 mg/kg sc, daily 8-OH-DPAT 1 mg/kg sc, Day 17
  Response Rate: 1.0 ± 0.2 responses/second
[2]; single dose 3 mg/kg sc, daily 8-OH-DPAT 1 mg/kg sc, Day 21
  Response Rate: 0.7 ± 0.2 responses/second
